Test results reported in patent US6914045B2, “Glycopeptide antibiotics” (Wyeth Holdings Corporation, priority 2001, dated 2005).

What was measured:
Assay in all cases: in vitro antibacterial evaluation, MIC by broth dilution
Assay type in all cases: cell-based
Staphylococcus sp. = settings: broth dilution, 18 hours at 35° C.
How it was run: (§1)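 Step 1: dilute antibiotic across 64-0.06 μg/mL in Muller-Hinton II […]. Step 2: inoculate at 5×10^5 CFU/mL.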

Enterococcus sp. = settings: broth dilution, 18 hours at 35° C.
How it was run: as §1

Streptococcus sp. = settings: broth dilution, 18 hours at 35° C.
How it was run: as §1

Escherichia coli = settings: 18 hours at 35° C.
[1] = inoculum 5×10^5 CFU/mL, strain GC 2242
[2] = inoculum 5×10^5 CFU/mL, strain GC 2691
[3] = inoculum 5×10^5 CFU/mL, strain GC 3059
[4] = inoculum 5×10^5 CFU/mL, strain ATCC 6301
[5] = inoculum 5×10^5 CFU/mL, strain GC 1894
[6] = inoculum 5×10^5 CFU/mL, strain GC 4563
[7] = inoculum 5×10^5 CFU/mL, strain GC 4564
[8] = inoculum 5×10^5 CFU/mL, strain GC 4565

COc1ccc2cc(COC3C(OC4C(CO)OC(Oc5ccc(CC6NC(=O)C(C(C)c7ccccc7)NC(=O)CNC(=O)C(CO)NC(=O)C(C(O)C7CNC(=N)N7C7OC(CO)C(O)C(O)C7O)NC(=O)C(C(O)C7CNC(=N)N7)NC6=O)cc5)C(O)C4O)OC(CO)C(O)C3O)ccc2c1 (stereo not drawn) [Example 230c, Cyclo[glycyl-β-methylphenylalanyl-O-[4-O-[2-O-[(6-methoxy-2-naphthyl)methyl]hexopyranosyl]hexopyranosyl]tyrosyl-3-(2-iminoimidazolidin-4-yl)seryl-3-(3-hexopyranosyl-2-iminoimidazolidin-4-yl)serylseryl]]
128 µg/mL: MIC Staphylococcus aureus (ATCC 29213) (Staphylococcus sp.) | MIC Staphylococcus aureus (GC 1131) (Staphylococcus sp.) | MIC Staphylococcus aureus (GC 3051) (Staphylococcus sp.) | MIC Staphylococcus aureus (GC 3053) (Staphylococcus sp.) | MIC Staphylococcus aureus (GC 4544) (Staphylococcus sp.) | MIC Staphylococcus aureus (GC 4545) (Staphylococcus sp.) | MIC Staphylococcus aureus (ATCC 29213) (Staphylococcus sp.; strain ATCC 29213) | MIC Staphylococcus aureus (GC 1131) (Staphylococcus sp.; strain GC 1131) | MIC Staphylococcus aureus (GC 3051) (Staphylococcus sp.; strain GC 3051) | MIC Staphylococcus aureus (GC 3053) (Staphylococcus sp.; strain GC 3053) | MIC Staphylococcus aureus (GC 4544) (Staphylococcus sp.; strain GC 4544) | MIC Staphylococcus aureus (GC 4545) (Staphylococcus sp.; strain GC 4545) | MIC Enterococcus avium (GC 4558) (Enterococcus sp.) | MIC Enterococcus faecalis (GC 4553) (Enterococcus sp.) | MIC Enterococcus faecium (GC 2243) (Enterococcus sp.) | MIC Enterococcus faecium (GC 2243) (Enterococcus sp.; inoculum 5×10^5 CFU/mL, strain GC 2243) | MIC Enterococcus faecalis (GC 4553) (Enterococcus sp.; inoculum 5×10^5 CFU/mL, strain GC 4553) | MIC Enterococcus avium (GC 4558) (Enterococcus sp.; inoculum 5×10^5 CFU/mL, strain GC 4558)
16 µg/mL: MIC Streptococcus pneumoniae (GC 1894) (Streptococcus sp.) | MIC Streptococcus pneumoniae (GC 1894) (Streptococcus sp.; [5])
32 µg/mL: MIC Coagulase Negative Staphylococcus (GC 6257) (Staphylococcus sp.) | MIC Coagulase Negative Staphylococcus (GC 6257) (Staphylococcus sp.; strain GC 6257) | MIC Enterococcus faecium (GC 4557) (Enterococcus sp.) | MIC Enterococcus faecium (GC 4557) (Enterococcus sp.; inoculum 5×10^5 CFU/mL, strain GC 4557) | MIC Streptococcus agalactiae (GC 4564) (Streptococcus sp.) | MIC Streptococcus pneumoniae (ATCC 6301) (Streptococcus sp.) | MIC Streptococcus pneumoniae (GC 4565) (Streptococcus sp.) | MIC Streptococcus pneumoniae (ATCC 6301) (Streptococcus sp.; [4]) | MIC Streptococcus agalactiae (GC 4564) (Streptococcus sp.; [7]) | MIC Streptococcus pneumoniae (GC 4565) (Streptococcus sp.; [8]) | MIC Escherichia coli (GC 4560) (Escherichia coli)
64 µg/mL: MIC Coagulase Negative Staphylococcus (GC 4547) (Staphylococcus sp.) | MIC Coagulase Negative Staphylococcus (GC 4548) (Staphylococcus sp.) | MIC Coagulase Negative Staphylococcus (GC 4549) (Staphylococcus sp.) | MIC Coagulase Negative Staphylococcus (GC 4551) (Staphylococcus sp.) | MIC Staphylococcus aureus (GC 4541) (Staphylococcus sp.) | MIC Staphylococcus aureus-SMITH (GC 4543) (Staphylococcus sp.) | MIC Staphylococcus haemolyticus (GC 4546) (Staphylococcus sp.) | MIC Staphylococcus aureus (GC 4541) (Staphylococcus sp.; strain GC 4541) | MIC Staphylococcus aureus-SMITH (GC 4543) (Staphylococcus sp.; strain GC 4543) | MIC Staphylococcus haemolyticus (GC 4546) (Staphylococcus sp.; strain GC 4546) | MIC Coagulase Negative Staphylococcus (GC 4547) (Staphylococcus sp.; strain GC 4547) | MIC Coagulase Negative Staphylococcus (GC 4548) (Staphylococcus sp.; strain GC 4548) | MIC Coagulase Negative Staphylococcus (GC 4549) (Staphylococcus sp.; strain GC 4549) | MIC Coagulase Negative Staphylococcus (GC 4551) (Staphylococcus sp.; strain GC 4551) | MIC Streptococcus pyogenes (GC 4563) (Streptococcus sp.) | MIC Streptococcus pyogenes (GC 4563) (Streptococcus sp.; [6])
>128 µg/mL: MIC Staphylococcus aureus (GC 4542) (Staphylococcus sp.) | MIC Staphylococcus aureus (GC 4542) (Staphylococcus sp.; strain GC 4542) | MIC Enterococcus faecalis (ATCC 29212) (Enterococcus sp.) | MIC Enterococcus faecalis (GC 2242) (Enterococcus sp.) | MIC Enterococcus faecalis (GC 2691) (Enterococcus sp.) | MIC Enterococcus faecalis (GC 3059) (Enterococcus sp.) | MIC Enterococcus faecalis (GC 4552) (Enterococcus sp.) | MIC Enterococcus faecalis (GC 4554) (Enterococcus sp.) | MIC Enterococcus faecalis (GC 6189) (Enterococcus sp.) | MIC Enterococcus faecium (GC 4556) (Enterococcus sp.) | MIC Enterococcus faecalis (ATCC 29212) (Enterococcus sp.; inoculum 5×10^5 CFU/mL, strain ATCC 29212) | MIC Enterococcus faecalis (GC 2242) (Enterococcus sp.; [1]) | MIC Enterococcus faecalis (GC 2691) (Enterococcus sp.; [2]) | MIC Enterococcus faecalis (GC 3059) (Enterococcus sp.; [3]) | MIC Enterococcus faecalis (GC 4552) (Enterococcus sp.; inoculum 5×10^5 CFU/mL, strain GC 4552) | MIC Enterococcus faecalis (GC 4554) (Enterococcus sp.; inoculum 5×10^5 CFU/mL, strain GC 4554) | MIC Enterococcus faecium (GC 4556) (Enterococcus sp.; inoculum 5×10^5 CFU/mL, strain GC 4556) | MIC Enterococcus faecalis (GC 6189) (Enterococcus sp.; inoculum 5×10^5 CFU/mL, strain GC 6189) | MIC Escherichia coli (ATCC 25922) (Escherichia coli) | MIC Escherichia coli (GC 4559) (Escherichia coli)

COc1ccc(COCC2OC(OC3C(CO)OC(Oc4ccc(CC5NC(=O)C(C(C)c6ccccc6)NC(=O)CNC(=O)C(CO)NC(=O)C(C(O)C6CNC(=N)N6C6OC(CO)C(O)C(O)C6O)NC(=O)C(C(O)C6CNC(=N)N6)NC5=O)cc4)C(O)C3O)C(O)C(O)C2O)cc1OCc1ccccc1 (centres unmarked) [Example 239]
2 µg/mL: MIC Coagulase Negative Staphylococcus (GC 4547) (Staphylococcus sp.) | MIC Coagulase Negative Staphylococcus (GC 4551) (Staphylococcus sp.) | MIC Staphylococcus aureus (ATCC 29213) (Staphylococcus sp.) | MIC Staphylococcus aureus (GC 1131) (Staphylococcus sp.) | MIC Staphylococcus aureus (GC 3053) (Staphylococcus sp.) | MIC Staphylococcus aureus (GC 4542) (Staphylococcus sp.) | MIC Staphylococcus aureus (GC 4544) (Staphylococcus sp.) | MIC Staphylococcus aureus (GC 4545) (Staphylococcus sp.) | MIC Staphylococcus aureus-SMITH (GC 4543) (Staphylococcus sp.) | MIC Staphylococcus aureus (ATCC 29213) (Staphylococcus sp.; strain ATCC 29213) | MIC Staphylococcus aureus (GC 1131) (Staphylococcus sp.; strain GC 1131) | MIC Staphylococcus aureus (GC 3053) (Staphylococcus sp.; strain GC 3053) | MIC Staphylococcus aureus (GC 4542) (Staphylococcus sp.; strain GC 4542) | MIC Staphylococcus aureus-SMITH (GC 4543) (Staphylococcus sp.; strain GC 4543) | MIC Staphylococcus aureus (GC 4544) (Staphylococcus sp.; strain GC 4544) | MIC Staphylococcus aureus (GC 4545) (Staphylococcus sp.; strain GC 4545) | MIC Coagulase Negative Staphylococcus (GC 4547) (Staphylococcus sp.; strain GC 4547) | MIC Coagulase Negative Staphylococcus (GC 4551) (Staphylococcus sp.; strain GC 4551) | MIC Enterococcus faecium (GC 4557) (Enterococcus sp.) | MIC Enterococcus faecium (GC 4557) (Enterococcus sp.; strain GC 4557)
1 µg/mL: MIC Coagulase Negative Staphylococcus (GC 4548) (Staphylococcus sp.) | MIC Coagulase Negative Staphylococcus (GC 4549) (Staphylococcus sp.) | MIC Coagulase Negative Staphylococcus (GC 6257) (Staphylococcus sp.) | MIC Staphylococcus aureus (GC 3051) (Staphylococcus sp.) | MIC Staphylococcus haemolyticus (GC 4546) (Staphylococcus sp.) | MIC Staphylococcus aureus (GC 3051) (Staphylococcus sp.; strain GC 3051) | MIC Staphylococcus haemolyticus (GC 4546) (Staphylococcus sp.; strain GC 4546) | MIC Coagulase Negative Staphylococcus (GC 4548) (Staphylococcus sp.; strain GC 4548) | MIC Coagulase Negative Staphylococcus (GC 4549) (Staphylococcus sp.; strain GC 4549) | MIC Coagulase Negative Staphylococcus (GC 6257) (Staphylococcus sp.; strain GC 6257) | MIC Escherichia coli (GC 4560) (Escherichia coli)
>64 µg/mL: MIC Escherichia coli (ATCC 25922) (Escherichia coli) | MIC Escherichia coli (GC 4559) (Escherichia coli)
4 µg/mL: MIC Staphylococcus aureus (GC 4541) (Staphylococcus sp.) | MIC Staphylococcus aureus (GC 4541) (Staphylococcus sp.; strain GC 4541) | MIC Enterococcus avium (GC 4558) (Enterococcus sp.) | MIC Enterococcus faecalis (ATCC 29212) (Enterococcus sp.) | MIC Enterococcus faecalis (GC 2242) (Enterococcus sp.) | MIC Enterococcus faecalis (GC 2691) (Enterococcus sp.) | MIC Enterococcus faecalis (GC 3059) (Enterococcus sp.) | MIC Enterococcus faecalis (GC 4552) (Enterococcus sp.) | MIC Enterococcus faecalis (GC 4553) (Enterococcus sp.) | MIC Enterococcus faecalis (GC 4554) (Enterococcus sp.) | MIC Enterococcus faecalis (GC 6189) (Enterococcus sp.) | MIC Enterococcus faecium (GC 2243) (Enterococcus sp.) | MIC Enterococcus faecium (GC 4556) (Enterococcus sp.) | MIC Enterococcus faecalis (ATCC 29212) (Enterococcus sp.; strain ATCC 29212) | MIC Enterococcus faecium (GC 2243) (Enterococcus sp.; strain GC 2243) | MIC Enterococcus faecalis (GC 4552) (Enterococcus sp.; strain GC 4552) | MIC Enterococcus faecalis (GC 4553) (Enterococcus sp.; strain GC 4553) | MIC Enterococcus faecalis (GC 4554) (Enterococcus sp.; strain GC 4554) | MIC Enterococcus faecium (GC 4556) (Enterococcus sp.; strain GC 4556) | MIC Enterococcus avium (GC 4558) (Enterococcus sp.; strain GC 4558) | MIC Enterococcus faecalis (GC 6189) (Enterococcus sp.; strain GC 6189) | MIC Enterococcus faecalis (GC 2242) (Enterococcus sp.; [1]) | MIC Enterococcus faecalis (GC 2691) (Enterococcus sp.; [2]) | MIC Enterococcus faecalis (GC 3059) (Enterococcus sp.; [3])
<0.06 µg/mL: MIC Streptococcus pneumoniae (ATCC 6301) (Streptococcus sp.) | MIC Streptococcus pneumoniae (GC 1894) (Streptococcus sp.) | MIC Streptococcus pneumoniae (GC 4565) (Streptococcus sp.) | MIC Streptococcus pneumoniae (ATCC 6301) (Streptococcus sp.; [4]) | MIC Streptococcus pneumoniae (GC 1894) (Streptococcus sp.; [5]) | MIC Streptococcus pneumoniae (GC 4565) (Streptococcus sp.; [8])
0.25 µg/mL: MIC Streptococcus agalactiae (GC 4564) (Streptococcus sp.) | MIC Streptococcus pyogenes (GC 4563) (Streptococcus sp.) | MIC Streptococcus pyogenes (GC 4563) (Streptococcus sp.; [6]) | MIC Streptococcus agalactiae (GC 4564) (Streptococcus sp.; [7])
